Data published in patent US8546613B2, “SGK1 inhibitors for the prophylaxis and/or therapy of viral diseases and/or carcinomas” (priority 2008, dated 2013).
pIC50: −log10 of the molar value.

Key:
[1] = molecular target: T1, SGK1 protein kinase (Homo sapiens, UniProt O00141); assay: SGK1 protein kinase inhibition, filter binding method; assay type: biochemical; conditions: read-out: SGK1 enzyme inhibition IC50
T1 sequence (O00141 1-431): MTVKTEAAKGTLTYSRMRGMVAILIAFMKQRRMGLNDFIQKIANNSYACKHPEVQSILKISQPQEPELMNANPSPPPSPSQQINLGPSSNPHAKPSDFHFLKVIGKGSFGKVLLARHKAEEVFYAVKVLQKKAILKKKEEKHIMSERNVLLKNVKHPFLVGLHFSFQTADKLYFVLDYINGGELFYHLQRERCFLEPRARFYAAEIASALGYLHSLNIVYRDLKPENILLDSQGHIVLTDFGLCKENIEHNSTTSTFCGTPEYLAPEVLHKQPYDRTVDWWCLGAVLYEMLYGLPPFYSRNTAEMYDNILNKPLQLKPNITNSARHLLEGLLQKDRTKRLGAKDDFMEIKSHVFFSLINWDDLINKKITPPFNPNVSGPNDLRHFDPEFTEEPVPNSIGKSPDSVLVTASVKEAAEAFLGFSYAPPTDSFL
Excerpt: Further assays are known from the literature and could easily be carried out by the person skilled in the art (see, for example, Dhanabal et al., Cancer Res. 59:189-197; Xin et al., J. Biol. Chem. 274:9116-9121; Sheu et al., Anticancer Res. 18:4435-4441; Ausprunk et al., Dev. Biol. 38:237-248; Gimbrone et al., J. Natl. Cancer Inst. 52:413-427; Nicosia et al., In Vitro 18:538-549).
The inhibition of SGK1 protein kinase can be determined in the filter binding method.

[2] = system: LCMV; parameters: species or system mice; conditions: mouse, in vivo
[3] = system: colon carcinomas; assay: Chemically induced (DMH/DSS) colon carcinomas in mice; assay type: in vivo; conditions: DMH/DSS-induced tumour genesis; 4.46 mg/g of feed (approx. 600 mg/kg) for 20 days, one week after the treatment; vs placebo
Method: To this end, colon tumours were induced chemically in the experimental animals (Wang J G, Wang D F, Lv B J, Si J M: A novel mouse model for colitis-associated colon carcinogenesis induced by 1,2-dimethylhydrazine and dextran sulfate sodium. World J Gastroenterol 2004; 10:2958-2962). Some of the experimental animals were subjected to three cycles of chemical tumour genesis at an age of 8 weeks. To this end, the animals were treated intraperitoneally with 20 mg/kg of 1,2-dimethylhydrazine (DMH; Sigma-Aldrich Corporation. St. Louis. Mo. USA). Starting one week later, distilled water containing 30 g/l of synthetic dextran sulfate sodium (DSS; molecular weight 5000; Wako Pure Chemical Industries Ltd. Japan) was administered to the animals three times for 7 days and distilled water was administered for a further 14 days (total duration 3×(1+2 weeks)=9 weeks in total). The remainder of the experimental animals (control animals) were instead supplied intraperitoneally by injection with 20 mg/kg of a 0.9% sodium chloride solution. All mice were anaesthetised with ether at the age of 22 weeks and subsequently killed.
One week after the treatment, either a placebo or the SGK1 inhibitor was administered for 20 days. The SGK1 inhibitor had been added to the feed in a mixing ratio of 4.46 mg/g of feed. This corresponds to an approximate dose of 600 mg/kg of body weight.

SMILES	pIC50 [1]	bilirubin concentration [2]	concentration of alanine aminotransferase [2]	growth of colon tumours [3]
CCc1c(C(=O)NNC(=O)[C@@H](O)c2cc(F)cc(F)c2)ccc(O)c1C [Ia, N′-[(S)-2-(3,5-Difluorophenyl)-2-hydroxyacetyl]-2-ethyl-4-hydroxy-3-methylbenzohydrazide]	< 6.52			
CCc1c(C(=O)NNC(=O)C(O)c2cc(F)cc(F)c2)ccc(O)c1C (racemic) [I, N′-[2-(3,5-Difluorophenyl)-2-hydroxyacetyl]-2-ethyl-4-hydroxy-3-methylbenzohydrazide]	< 6.52	significantly reduced	significantly reduced	significantly inhibited
